According to ChEMBL document CHEMBL1201862, “PubChem BioAssay data set” (2004):
Activity calls are given as the source filed them.

Key:
[1] = molecular target: T1, E3 ubiquitin-protein ligase XIAP (Homo sapiens, UniProt P98170); assay: Counter Screen using XIAP-Bir3 for Chemical Antagonists of Bir1/2 domains of IAP-family anti-apoptotic proteins. [Related pubchem assays (depositor defined):AID1018, AID1449, AID1514, AID1638, AID1749, AID1750, AID488957, AID488963]
[2] = molecular target: T1, E3 ubiquitin-protein ligase XIAP; assay: small molecules displacing peptide from XIAP – biochemical, IAP family, fluorescence polarization (AID 1018); format: functional
[3] = molecular target: Peroxisome proliferator-activated receptor gamma (Homo sapiens, UniProt P37231); assay: PPARg transcriptional activation, reporter cells – cell-based, luminescence, assay provider, dose response (AID 504447); format: functional
Chain of Peroxisome proliferator-activated receptor gamma (P37231 whole entry): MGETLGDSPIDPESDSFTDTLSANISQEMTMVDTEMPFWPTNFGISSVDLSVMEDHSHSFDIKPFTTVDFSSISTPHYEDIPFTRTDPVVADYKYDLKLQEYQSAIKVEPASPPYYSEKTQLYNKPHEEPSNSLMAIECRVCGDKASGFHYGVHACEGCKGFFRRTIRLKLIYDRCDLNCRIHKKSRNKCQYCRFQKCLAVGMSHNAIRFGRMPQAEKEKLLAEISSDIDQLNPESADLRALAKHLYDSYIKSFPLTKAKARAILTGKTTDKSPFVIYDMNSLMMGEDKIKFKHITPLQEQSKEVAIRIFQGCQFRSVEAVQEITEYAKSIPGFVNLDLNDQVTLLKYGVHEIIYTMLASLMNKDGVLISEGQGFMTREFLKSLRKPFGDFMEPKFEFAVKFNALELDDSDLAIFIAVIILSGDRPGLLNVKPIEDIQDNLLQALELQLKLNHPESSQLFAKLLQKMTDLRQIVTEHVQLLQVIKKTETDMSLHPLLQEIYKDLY

[4] = viability of uninfected HEp-2 cells – cell-based, HTS, cytotoxicity control for RSV inhibitor project, dose response (AID 2410); format: functional; details: human respiratory syncytial virus
HEK293 = assay: SAR analysis of compounds that are cytotoxic to HEK293 - Set 3. [Related pubchem assays (depositor defined):AID1575, AID1578, AID1848, AID1849, AID2001, AID2333, AID2334, AID2335, AID2337, AID2469]; format: functional, cell-based; details: Homo sapiens
[5] = molecular target: Nucleotide-binding oligomerization domain-containing protein 1 (Homo sapiens, UniProt Q9Y239); assay: SAR analysis of compounds that inhibit NOD1 - Set 3. [Related pubchem assays (depositor defined):AID1566, AID1575, AID1578, AID1849, AID1852, AID2333, AID2335, AID2466]; format: functional
Chain of Nucleotide-binding oligomerization domain-containing protein 1 (Q9Y239 whole entry, the tested form may be a part): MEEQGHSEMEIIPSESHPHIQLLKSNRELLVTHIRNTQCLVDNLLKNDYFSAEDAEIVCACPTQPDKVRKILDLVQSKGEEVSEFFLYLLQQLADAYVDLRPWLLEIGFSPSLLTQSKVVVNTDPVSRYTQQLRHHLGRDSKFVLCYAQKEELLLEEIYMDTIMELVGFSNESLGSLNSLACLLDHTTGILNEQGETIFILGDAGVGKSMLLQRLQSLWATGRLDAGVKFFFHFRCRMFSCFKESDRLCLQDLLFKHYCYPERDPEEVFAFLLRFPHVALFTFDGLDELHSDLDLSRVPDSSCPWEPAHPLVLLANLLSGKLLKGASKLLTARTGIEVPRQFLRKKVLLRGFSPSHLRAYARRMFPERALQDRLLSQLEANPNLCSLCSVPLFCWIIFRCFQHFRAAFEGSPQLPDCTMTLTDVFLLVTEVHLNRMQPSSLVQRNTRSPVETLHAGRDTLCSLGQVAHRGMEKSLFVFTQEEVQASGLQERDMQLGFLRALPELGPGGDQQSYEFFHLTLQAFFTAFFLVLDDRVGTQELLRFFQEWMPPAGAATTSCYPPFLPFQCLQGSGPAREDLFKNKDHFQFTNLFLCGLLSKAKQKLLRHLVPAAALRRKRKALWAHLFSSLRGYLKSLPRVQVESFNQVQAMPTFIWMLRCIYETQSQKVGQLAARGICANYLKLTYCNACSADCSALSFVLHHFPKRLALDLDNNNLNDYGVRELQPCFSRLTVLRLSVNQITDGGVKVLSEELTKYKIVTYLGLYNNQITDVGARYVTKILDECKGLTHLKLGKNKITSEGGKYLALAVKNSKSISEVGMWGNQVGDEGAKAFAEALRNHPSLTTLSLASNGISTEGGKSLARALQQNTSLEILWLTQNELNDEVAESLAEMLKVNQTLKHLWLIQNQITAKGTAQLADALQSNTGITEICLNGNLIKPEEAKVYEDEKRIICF

[6] = molecular target: Nucleotide-binding oligomerization domain-containing protein 2 (Homo sapiens, UniProt Q9HC29); assay: inhibition of MDP-driven NOD2 NF-kB reporter – cell-based, set 3, SAR follow-up (AID 2799); format: functional
Chain of Nucleotide-binding oligomerization domain-containing protein 2 (Q9HC29 whole entry, the tested form may be a part): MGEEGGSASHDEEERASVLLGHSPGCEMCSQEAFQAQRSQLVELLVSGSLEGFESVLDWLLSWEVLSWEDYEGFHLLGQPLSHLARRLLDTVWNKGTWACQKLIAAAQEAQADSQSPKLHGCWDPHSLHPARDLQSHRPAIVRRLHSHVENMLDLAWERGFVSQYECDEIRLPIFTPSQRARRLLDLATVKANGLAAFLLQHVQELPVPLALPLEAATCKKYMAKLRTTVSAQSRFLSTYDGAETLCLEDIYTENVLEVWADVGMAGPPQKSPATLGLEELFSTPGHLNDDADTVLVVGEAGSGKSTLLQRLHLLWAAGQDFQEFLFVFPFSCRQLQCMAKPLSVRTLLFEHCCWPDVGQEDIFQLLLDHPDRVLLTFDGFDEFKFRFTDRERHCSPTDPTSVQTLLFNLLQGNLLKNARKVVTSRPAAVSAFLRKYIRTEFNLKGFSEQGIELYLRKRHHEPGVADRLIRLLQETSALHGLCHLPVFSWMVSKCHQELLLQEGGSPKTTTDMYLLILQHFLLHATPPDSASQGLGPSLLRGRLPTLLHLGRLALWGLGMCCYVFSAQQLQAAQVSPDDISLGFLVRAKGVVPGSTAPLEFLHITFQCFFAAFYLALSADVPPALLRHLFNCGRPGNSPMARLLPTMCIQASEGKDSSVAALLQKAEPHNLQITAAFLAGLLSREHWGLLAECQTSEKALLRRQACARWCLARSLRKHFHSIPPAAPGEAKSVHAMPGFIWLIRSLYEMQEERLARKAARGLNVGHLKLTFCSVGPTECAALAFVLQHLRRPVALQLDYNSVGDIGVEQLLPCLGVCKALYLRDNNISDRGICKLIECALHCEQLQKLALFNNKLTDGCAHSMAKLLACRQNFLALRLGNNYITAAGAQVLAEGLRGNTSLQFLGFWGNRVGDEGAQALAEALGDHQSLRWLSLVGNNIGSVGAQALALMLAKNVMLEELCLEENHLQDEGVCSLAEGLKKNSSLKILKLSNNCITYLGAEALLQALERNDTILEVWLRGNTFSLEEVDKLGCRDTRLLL

Tumor necrosis factor = Tumor necrosis factor (Homo sapiens, UniProt P01375); assay: analog potency on TNFa NF-kB signaling – cell-based, set 3, SAR follow-up (AID 2801); format: functional
Chain of Tumor necrosis factor (P01375 whole entry): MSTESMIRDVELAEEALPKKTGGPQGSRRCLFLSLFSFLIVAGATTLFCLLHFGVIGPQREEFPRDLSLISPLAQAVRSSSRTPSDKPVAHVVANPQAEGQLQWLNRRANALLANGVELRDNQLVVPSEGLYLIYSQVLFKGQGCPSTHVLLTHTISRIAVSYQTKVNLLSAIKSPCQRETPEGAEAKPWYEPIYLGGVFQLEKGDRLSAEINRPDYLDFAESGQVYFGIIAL

[7] = molecular target: Kappa-type opioid receptor (Homo sapiens, UniProt P41145); assay: SAR analysis of small molecule agonists of the kappa opioid receptor via a luminescent beta-arrestin assay - Set 3. [Related pubchem assays (depositor defined):AID1777, AID1785, AID1786, AID1966, AID2133, AID2136, AID2284, AID2500]; format: functional
Chain of Kappa-type opioid receptor (P41145 whole entry): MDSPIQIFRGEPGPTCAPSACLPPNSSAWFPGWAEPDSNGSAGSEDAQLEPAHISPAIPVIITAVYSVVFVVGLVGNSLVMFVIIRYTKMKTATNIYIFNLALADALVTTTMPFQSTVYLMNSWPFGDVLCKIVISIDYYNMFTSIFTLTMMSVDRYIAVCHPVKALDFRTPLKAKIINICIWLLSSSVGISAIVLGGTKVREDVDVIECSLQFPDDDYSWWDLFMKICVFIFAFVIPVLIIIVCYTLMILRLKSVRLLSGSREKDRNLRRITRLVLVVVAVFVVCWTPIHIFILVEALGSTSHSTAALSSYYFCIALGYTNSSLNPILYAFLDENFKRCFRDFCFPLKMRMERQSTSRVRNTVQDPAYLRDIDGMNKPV

[8] = molecular target: DNA damage-inducible transcript 3 protein (Mus musculus, UniProt P35639); format: functional, Cricetulus griseus
Chain of DNA damage-inducible transcript 3 protein (P35639 whole entry): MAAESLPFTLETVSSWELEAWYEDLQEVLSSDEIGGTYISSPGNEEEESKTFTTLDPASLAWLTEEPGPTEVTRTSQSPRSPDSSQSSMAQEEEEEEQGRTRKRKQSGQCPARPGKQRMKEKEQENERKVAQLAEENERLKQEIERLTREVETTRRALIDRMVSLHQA

T1 sequence (P98170 whole entry): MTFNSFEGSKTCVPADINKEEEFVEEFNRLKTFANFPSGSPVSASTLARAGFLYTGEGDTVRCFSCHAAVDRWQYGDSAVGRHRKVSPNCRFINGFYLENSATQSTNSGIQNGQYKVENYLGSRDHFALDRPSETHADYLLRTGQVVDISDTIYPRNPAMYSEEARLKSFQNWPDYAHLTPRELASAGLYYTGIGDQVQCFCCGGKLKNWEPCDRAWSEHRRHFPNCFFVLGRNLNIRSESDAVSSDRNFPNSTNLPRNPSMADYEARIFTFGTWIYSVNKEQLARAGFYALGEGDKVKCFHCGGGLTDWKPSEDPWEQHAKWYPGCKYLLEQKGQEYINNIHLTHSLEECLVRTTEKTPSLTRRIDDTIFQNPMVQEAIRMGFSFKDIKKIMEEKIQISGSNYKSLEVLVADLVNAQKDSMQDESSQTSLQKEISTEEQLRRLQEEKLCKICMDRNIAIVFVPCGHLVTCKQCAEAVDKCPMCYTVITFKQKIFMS

## CC(=O)NCCc1csc(-c2ccccc2)n1
[1]
  IC50: > 100 µM (inactive)
[2]
  IC50: > 100 µM (not active)

## CCOc1ccc(C2c3[nH]c4ccccc4c3CCN2Cc2cccn2-c2ncccn2)cc1 (stereo not given)
[3]
  EC50: 1.6 µM (active)
[4]
  CC50: 16 µM (active)

## Cc1ccccc1S(=O)(=O)n1c(N)nc2ccccc21
HEK293
  IC50: > 20 µM (inactive)
[5]
  IC50: > 20 µM (inactive)
[6]
  IC50: > 20 µM (inactive)
Tumor necrosis factor
  IC50: > 20 µM (inactive)

## c1ccc(CSc2nnc(-c3ccccn3)n2Cc2cccnc2)cc1
[7]
  EC50: > 20 µM (inactive)

## COC(=O)Oc1ccc(/C=N/NC(=O)CSCc2ccccc2Br)cc1OC
[8]
  Absolute IC50 (CHOP): 10 µM
